The values that follow come from patent US11339130B1 (Blade Therapeutics, Inc., priority 2016, dated 2022).

Where two headings read alike, the source gives them in different places.

One test has as its target T1, Human Calpain 1/NS1 (Homo sapiens, UniProt P07384).
T1 sequence (P07384 1-714): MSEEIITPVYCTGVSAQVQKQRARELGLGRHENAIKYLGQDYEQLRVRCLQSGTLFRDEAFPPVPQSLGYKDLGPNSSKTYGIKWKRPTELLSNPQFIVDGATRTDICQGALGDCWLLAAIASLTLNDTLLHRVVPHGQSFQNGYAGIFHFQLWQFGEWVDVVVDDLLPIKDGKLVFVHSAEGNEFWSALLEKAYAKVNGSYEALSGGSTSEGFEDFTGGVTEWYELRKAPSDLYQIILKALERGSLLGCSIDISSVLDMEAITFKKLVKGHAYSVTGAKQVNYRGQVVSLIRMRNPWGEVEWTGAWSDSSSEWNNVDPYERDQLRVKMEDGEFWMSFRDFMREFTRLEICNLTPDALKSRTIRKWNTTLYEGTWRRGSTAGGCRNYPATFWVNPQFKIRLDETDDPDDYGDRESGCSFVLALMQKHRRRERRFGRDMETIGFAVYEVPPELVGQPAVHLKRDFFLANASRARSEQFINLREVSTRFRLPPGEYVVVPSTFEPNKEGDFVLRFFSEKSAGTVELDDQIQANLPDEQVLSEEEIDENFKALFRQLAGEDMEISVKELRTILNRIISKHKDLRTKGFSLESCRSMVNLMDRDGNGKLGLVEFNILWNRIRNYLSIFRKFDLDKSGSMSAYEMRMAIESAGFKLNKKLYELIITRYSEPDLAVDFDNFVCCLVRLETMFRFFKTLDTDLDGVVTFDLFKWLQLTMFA
T1 sequence (P04632 1-268 partner): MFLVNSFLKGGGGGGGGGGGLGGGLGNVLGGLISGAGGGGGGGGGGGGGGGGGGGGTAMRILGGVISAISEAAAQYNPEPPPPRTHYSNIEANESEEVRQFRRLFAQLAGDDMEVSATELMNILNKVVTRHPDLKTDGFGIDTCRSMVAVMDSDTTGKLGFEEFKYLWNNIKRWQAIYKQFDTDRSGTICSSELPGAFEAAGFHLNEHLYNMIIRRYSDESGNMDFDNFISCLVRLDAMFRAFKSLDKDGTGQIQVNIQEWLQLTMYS
The experiment in a line: Calpain inhibition continuous fluorescence (FRET) assay, Human Calpain 1/NS1. Type of test: biochemical. As to conditions: read-out: Human Calpain 1/NS1 IC50. In a few lines:
(§1)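 Calpain activity is measured kinetically with a quenched FRET peptide in 50 mM Tris pH 7.5, 100 mM NaCl, 1 mM DTT, with CaCl2 triggering activation. Rates over 1-5 min are plotted against log inhibitor to obtain IC50 by 4-parameter logistic fitting.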

For the next test, the target named is T2, Human Calpain 2/NS1 (Homo sapiens, UniProt P17655).
T2 sequence (P17655 1-700): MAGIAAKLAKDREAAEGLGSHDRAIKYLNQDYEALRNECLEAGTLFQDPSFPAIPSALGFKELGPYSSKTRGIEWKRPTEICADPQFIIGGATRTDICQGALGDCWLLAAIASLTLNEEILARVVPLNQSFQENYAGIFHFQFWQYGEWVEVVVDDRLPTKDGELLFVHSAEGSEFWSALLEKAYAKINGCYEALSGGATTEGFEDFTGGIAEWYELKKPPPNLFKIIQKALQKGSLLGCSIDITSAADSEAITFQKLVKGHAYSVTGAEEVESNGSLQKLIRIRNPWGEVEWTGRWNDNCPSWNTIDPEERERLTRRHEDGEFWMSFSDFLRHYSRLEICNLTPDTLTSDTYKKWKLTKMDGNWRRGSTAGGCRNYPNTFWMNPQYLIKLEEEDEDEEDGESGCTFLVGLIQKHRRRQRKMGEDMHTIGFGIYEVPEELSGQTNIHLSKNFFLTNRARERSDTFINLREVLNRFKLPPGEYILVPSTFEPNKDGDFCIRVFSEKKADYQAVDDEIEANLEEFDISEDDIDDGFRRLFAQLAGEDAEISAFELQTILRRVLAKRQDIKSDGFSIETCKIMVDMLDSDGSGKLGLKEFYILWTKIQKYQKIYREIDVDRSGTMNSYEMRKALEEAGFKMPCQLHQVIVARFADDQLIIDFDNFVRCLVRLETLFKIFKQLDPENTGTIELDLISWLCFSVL
T2 sequence (P04632 1-268 partner): T1 sequence (P04632 1-268 partner)
The experiment in a line: Calpain inhibition continuous fluorescence (FRET) assay, Human Calpain 2/NS1. Type of test: biochemical. As to conditions: read-out: Human Calpain 2/NS1 IC50. The method in brief: as §1

The target of another test is T3, Human Calpain 9/NS1 (Homo sapiens, UniProt O14815).
T3 sequence (O14815 1-690): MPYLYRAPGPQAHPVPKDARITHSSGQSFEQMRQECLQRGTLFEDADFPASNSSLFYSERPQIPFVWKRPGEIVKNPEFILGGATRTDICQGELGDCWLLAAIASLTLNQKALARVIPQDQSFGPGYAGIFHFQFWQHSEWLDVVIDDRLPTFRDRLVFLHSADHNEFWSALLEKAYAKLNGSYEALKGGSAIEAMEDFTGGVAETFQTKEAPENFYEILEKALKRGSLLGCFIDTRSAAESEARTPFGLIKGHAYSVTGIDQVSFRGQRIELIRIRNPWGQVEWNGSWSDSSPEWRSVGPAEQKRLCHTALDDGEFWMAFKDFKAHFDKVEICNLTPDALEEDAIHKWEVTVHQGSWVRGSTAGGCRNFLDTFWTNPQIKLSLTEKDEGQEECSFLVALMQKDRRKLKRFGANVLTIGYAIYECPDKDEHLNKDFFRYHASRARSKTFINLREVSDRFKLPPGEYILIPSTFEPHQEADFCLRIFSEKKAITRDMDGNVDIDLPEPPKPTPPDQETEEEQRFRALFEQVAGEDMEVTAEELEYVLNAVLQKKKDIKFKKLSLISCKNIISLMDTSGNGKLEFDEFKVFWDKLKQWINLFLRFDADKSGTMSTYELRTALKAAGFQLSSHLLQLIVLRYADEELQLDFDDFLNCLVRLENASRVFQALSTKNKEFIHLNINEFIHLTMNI
T3 sequence (P04632 1-268 partner): T1 sequence (P04632 1-268 partner)
Description: Calpain inhibition continuous fluorescence (FRET) assay, Human Calpain 9/NS1. Format: biochemical. Particulars: read-out: Human Calpain 9/NS1 IC50. The method in brief: as §1

Test [1] deals with Calpain activity in SH-SY5Y cells (SBDP-150). Description: SH-SY5Y Spectrin western blot assay (SBDP-150 breakdown product, A23187-induced). Format: cell-based. Particulars: read-out: SH-SY5Y Spectrin IC50. (In general: In western blotting, separated proteins are transferred to a membrane and probed.)
In test [2] the test system is Calpain activity in SH-SY5Y cells. Description: SH-SY5Y + AMC fluorescence assay (Suc-LLVY-AMC substrate). Format: cell-based.
Setting [3] is: Homo sapiens, SH-SY5Y cells, A23187-induced SBDP-150, western blot.
[4] abbreviates: Homo sapiens, Column D, SH-SY5Y cells, A23187-induced SBDP-150.
Where [5] appears, read: Column E, read-out: SH-SY5Y + AMC IC50.

Regarding `Cn1cc(C(=O)NC(Cc2ccccc2)C(=O)C(N)=O)c(-c2cccc3c2OC(F)(F)O3)n1` (stereo not drawn) [Compound 510, N-(4-amino-3,4-dioxo-1-phenylbutan-2-yl)-3-(2,2-difluorobenzo[d][1,3]dioxol-4-yl)-1-methyl-1H-pyrazole-4-carboxamide], the IC50 on Human Calpain 1/NS1 is under 3 µM; on Human Calpain 2/NS1, under 3 µM; at Human Calpain 9/NS1, under 3 µM; in test [1] (setting [3]) it was 10 to 25 µM; in test [2] (read-out: SH-SY5Y + AMC IC50) it was 10 to 25 µM.

Turning to `Cn1cc(C(=O)NC(Cc2ccccc2)C(=O)C(N)=O)c(-n2ncc3ccccc32)n1` (stereo not drawn) [Compound 530, N-(4-amino-3,4-dioxo-1-phenylbutan-2-yl)-3-(1H-indazol-1-yl)-1-methyl-1H-pyrazole-4-carboxamide], the IC50 on Human Calpain 1/NS1 was under 3 µM; on Human Calpain 2/NS1, under 3 µM; on Human Calpain 9/NS1, under 3 µM; in test [1] (setting [3]), over 25 µM; in test [2] (read-out: SH-SY5Y + AMC IC50), over 25 µM.

For the compound `CC(=O)NCc1ccc(-n2nc(C)cc2C(=O)N[C@@H](Cc2ccccc2)C(=O)C(N)=O)cc1` [Compound 157, (S)-1-(4-(acetamidomethyl)phenyl)-N-(4-amino-3,4-dioxo-1-phenylbutan-2-yl)-3-methyl-1H-pyrazole-5-carboxamide], the IC50 on Human Calpain 1/NS1 (Column A) is under 3 µM; on Human Calpain 2/NS1 (Column B), under 3 µM; on Human Calpain 9/NS1 (Column C), under 3 µM; in test [1] (Homo sapiens, SH-SY5Y) it was over 25 µM; in test [2] (read-out: SH-SY5Y + AMC IC50, Column E), over 25 µM.

For `NC(=O)C(=O)C(Cc1ccccc1)NC(=O)c1cn(C(F)F)nc1-c1ccccc1F` (stereo not drawn) [Compound 383, N-(4-amino-3,4-dioxo-1-phenylbutan-2-yl)-1-(difluoromethyl)-3-(2-fluorophenyl)-1H-pyrazole-4-carboxamide], the IC50 on Human Calpain 1/NS1 was under 3 µM; on Human Calpain 2/NS1, under 3 µM; on Human Calpain 9/NS1, under 3 µM; in test [1] (setting [3]), under 10 µM; in test [2] (read-out: SH-SY5Y + AMC IC50) it was under 10 µM.

“N-(4-amino-3,4-dioxo-1-phenylbutan-2-yl)-1-methyl-3-(5-methylthiophen-2-yl)-1H-pyrazole-4-carboxamide [Compound 505]”: the IC50 on Human Calpain 1/NS1 is under 3 µM; on Human Calpain 2/NS1 it was under 3 µM; on Human Calpain 9/NS1, under 3 µM; in test [1] (SH-SY5Y cells, A23187-induced SBDP-150, western blot), under 10 µM; in test [2] (read-out: SH-SY5Y + AMC IC50), over 25 µM.

For `Cc1ccccc1-c1oncc1C(=O)NC(Cc1ccccc1)C(=O)C(N)=O` (stereo not drawn) [Compound 557, N-(4-amino-3,4-dioxo-1-phenylbutan-2-yl)-5-(o-tolyl)isoxazole-4-carboxamide], the IC50 at Human Calpain 1/NS1 was under 3 µM; at Human Calpain 2/NS1 it was under 3 µM; on Human Calpain 9/NS1 it was under 3 µM; in test [1] (setting [3]), over 25 µM; in test [2] (read-out: SH-SY5Y + AMC IC50), under 10 µM.

With `Cc1cc(C(=O)N[C@H](C=O)Cc2ccccc2)n(-c2ccncn2)n1` [Compound 279, (S)-3-methyl-N-(1-oxo-3-phenylpropan-2-yl)-1-(pyrimidin-4-yl)-1H-pyrazole-5-carboxamide], the IC50 was under 3 µM on Human Calpain 1/NS1 (Column A); under 3 µM on Human Calpain 2/NS1 (Column B); 3 to 10 µM at Human Calpain 9/NS1 (Column C); 10 to 25 µM in test [1] (setting [4]); under 10 µM in test [2] (setting [5]).

Consider `CN(C)C(=O)CNC(=O)C(=O)[C@H](Cc1ccccc1)NC(=O)c1cn(C)nc1-c1ccccc1` [Compound 337, (S)—N-(4-((2-(dimethylamino)-2-oxoethyl)amino)-3,4-dioxo-1-phenylbutan-2-yl)-1-methyl-3-phenyl-1H-pyrazole-4-carboxamide], for which the IC50 at Human Calpain 1/NS1 was under 3 µM; on Human Calpain 2/NS1, under 3 µM; at Human Calpain 9/NS1, under 3 µM; in test [1] (setting [3]), under 10 µM; in test [2] (read-out: SH-SY5Y + AMC IC50) it was under 10 µM.

As for `NC(=O)C(=O)C(Cc1ccccc1)NC(=O)c1cn(C(F)F)nc1-c1cccc2ncccc12` (stereo not drawn) [Compound 576, N-(4-amino-3,4-dioxo-1-phenylbutan-2-yl)-1-(difluoromethyl)-3-(quinolin-5-yl)-1H-pyrazole-4-carboxamide], the IC50 is under 3 µM at Human Calpain 1/NS1; under 3 µM on Human Calpain 2/NS1; under 3 µM at Human Calpain 9/NS1; under 10 µM in test [1] (setting [3]); under 10 µM in test [2] (read-out: SH-SY5Y + AMC IC50).

As for `Cc1cc(C(=O)N[C@@H](Cc2ccccc2)C(=O)C(N)=O)n(-c2ccc3ccccc3n2)n1` [Compound 15, (S)—N-(4-amino-3,4-dioxo-1-phenylbutan-2-yl)-3-methyl-1-(quinolin-2-yl)-1H-pyrazole-5-carboxamide], the IC50 at Human Calpain 1/NS1 (Column A) is under 3 µM; on Human Calpain 2/NS1 (Column B), under 3 µM; at Human Calpain 9/NS1 (Column C), under 3 µM; in test [1] (setting [4]), under 10 µM; in test [2] (setting [5]), 10 to 25 µM.

Regarding `NC(=O)C(=O)C(Cc1ccccc1)NC(=O)c1cn(C2CCC2)nc1-c1ccccc1` (stereo not drawn) [Compound 526, N-(4-amino-3,4-dioxo-1-phenylbutan-2-yl)-1-cyclobutyl-3-phenyl-1H-pyrazole-4-carboxamide], the IC50 on Human Calpain 1/NS1 was under 3 µM; at Human Calpain 2/NS1 it was under 3 µM; at Human Calpain 9/NS1, under 3 µM; in test [1] (setting [3]) it was over 25 µM; in test [2] (read-out: SH-SY5Y + AMC IC50), under 10 µM.

Turning to `CC(C)C[C@H](NC(=O)c1cn(C)nc1-c1ccccc1)C(=O)C(N)=O` [Compound 415, (S)—N-(1-amino-5-methyl-1,2-dioxohexan-3-yl)-1-methyl-3-phenyl-1H-pyrazole-4-carboxamide], the IC50 was under 3 µM on Human Calpain 1/NS1; under 3 µM at Human Calpain 2/NS1; under 3 µM on Human Calpain 9/NS1; over 25 µM in test [1] (setting [3]); over 25 µM in test [2] (read-out: SH-SY5Y + AMC IC50).
